This is an account of results in patent US4181797A, “1-N-(ω-amino-α-hydroxyalkanoyl) derivatives of 4'-deoxy-6'-N-methylkanamycin A” (Bristol-Myers Company, priority 1978, dated 1980).

≈ marks a conversion by molar mass, not a printed value.

Test [1] concerns kanamycin phosphotransferase Type-II. To be noted: The Journal of Antibiotics, 27, 722-725 and 838-850 (1974); cited from earlier work.
For the next test, the system named is B. brevis ATCC8185. Put plainly: MIC in Mueller-Hinton agar, kanamycin-sensitive strain. Type of test: cell-based. The note with it: Brevibacillus brevis; B. brevis ATCC8185; enzyme produced: none; Mueller-Hinton agar; read-out: MIC. The protocol: (§1) The Minimum Inhibitory Concentrations (MIC's) of BB-K311, amikacin and kanamycin A were determined in Mueller-Hinton agar against a number of kanamycin-sensitive and kanamycin-resistant strains of organisms.

Another test deals with E. cloacae A20464. The description is as above. To be noted: Enterobacter cloacae; E. cloacae A20464; enzyme produced: none; Mueller-Hinton agar; read-out: MIC. Type of test: cell-based. Here is the method:
as §1

The test system of a further test is E. coli A9632. Described as above. Type of test: cell-based. The note with it: Escherichia coli; E. coli A9632; enzyme produced: none; Mueller-Hinton agar; read-out: MIC. Here is the method:
as §1

In the next test the test system is K. pneumoniae A15130. The test is described as above. The class given is cell-based. To be noted: Klebsiella pneumoniae; K. pneumoniae A15130; enzyme produced: none; Mueller-Hinton agar; read-out: MIC. Here is the method: as §1
The subject of the next test is P. Morganii A20031. The test is described as above. The class given is cell-based. The note with it: Morganella morganii; P. Morganii A20031; enzyme produced: none; Mueller-Hinton agar; read-out: MIC. Here is the method: as §1
Another test deals with P. mirabilis A9900. Described as above. Type of test: cell-based. To be noted: Proteus mirabilis; P. mirabilis A9900; enzyme produced: none; Mueller-Hinton agar; read-out: MIC. Here is the method: as §1
A further test relates to P. stuartii A20615. The description is as above. The class given is cell-based. To be noted: Providencia stuartii; P. stuartii A20615; enzyme produced: none; Mueller-Hinton agar; read-out: MIC. The protocol: as §1
Another test has as its system P. vulgaris A9526. Described as above. To be noted: Proteus vulgaris; P. vulgaris A9526; enzyme produced: none; Mueller-Hinton agar; read-out: MIC. Type of test: cell-based. The protocol: as §1
Another test concerns S. aureus Smith. The test is described as above. The class given is cell-based. To be noted: Staphylococcus aureus; S. aureus Smith; enzyme produced: none; Mueller-Hinton agar; read-out: MIC. Here is the method:
as §1

A further test has as its system S. marcescens A20019. The description is as above. The class given is cell-based. To be noted: Serratia marcescens; S. marcescens A20019; enzyme produced: none; Mueller-Hinton agar; read-out: MIC. The protocol:
as §1

The next test deals with E. cloacae A20364. As to the kind of experiment: MIC in Mueller-Hinton agar, APH(3')-I producer. To be noted: Enterobacter cloacae; E. cloacae A20364; enzyme produced: APH(3')-I; Mueller-Hinton agar; read-out: MIC. The class given is cell-based. The protocol: as §1
The test system of the next test is E. coli A20363. Put plainly: MIC in Mueller-Hinton agar, APH(3')-I producer. The class given is cell-based. The note with it: Escherichia coli; E. coli A20363; enzyme produced: APH(3')-I; Mueller-Hinton agar; read-out: MIC. The protocol: as §1
The test system of a further test is E. cloacae A21006. Put plainly: MIC in Mueller-Hinton agar, APH(3')-II producer. Type of test: cell-based. To be noted: Enterobacter cloacae; E. cloacae A21006; enzyme produced: APH(3')-II; Mueller-Hinton agar; read-out: MIC. Here is the method:
as §1

The next test has as its system E. coli A20107. As to the kind of experiment: MIC in Mueller-Hinton agar, APH(3')-II producer. The class given is cell-based. To be noted: Escherichia coli; E. coli A20107; enzyme produced: APH(3')-II; Mueller-Hinton agar; read-out: MIC. The protocol:
as §1

The next test relates to E. coli A20732. As to the kind of experiment: MIC in Mueller-Hinton agar, ANT(2") producer. Type of test: cell-based. To be noted: Escherichia coli; E. coli A20732; enzyme produced: ANT(2"); Mueller-Hinton agar; read-out: MIC. The protocol:
as §1

The test system of a further test is E. coli A20895. Put plainly: MIC in Mueller-Hinton agar, AAC(3)-I producer. The note with it: Escherichia coli; E. coli A20895; enzyme produced: AAC(3)-I; Mueller-Hinton agar; read-out: MIC. The class given is cell-based. Here is the method:
as §1

Another test has as its system E. cloacae HM-43. Put plainly: MIC in Mueller-Hinton agar, AAC(6')-producing strain. The class given is cell-based. The note with it: Enterobacter cloacae, HM43; E. cloacae HM-43; AAC(6')-producing; Mueller-Hinton agar; read-out: MIC. The protocol:
as §1

Another test deals with E. coli A2128. Described as above. Type of test: cell-based. To be noted: Escherichia coli; E. coli A2128; AAC(6')-producing; Mueller-Hinton agar; read-out: MIC. Here is the method:
as §1

The subject of the next test is P. aeruginosa GN315. The description is as above. The class given is cell-based. The note with it: Pseudomonas aeruginosa; P. aeruginosa GN315; AAC(6')-producing; Mueller-Hinton agar; read-out: MIC. The protocol:
as §1

The next test deals with P. aeruginosa GN4925. The test is described as above. The class given is cell-based. To be noted: Pseudomonas aeruginosa; P. aeruginosa GN4925; AAC(6')-producing; Mueller-Hinton agar; read-out: MIC. Here is the method: as §1
Another test deals with P. rettgeri HM-56. Described as above. The note with it: Providencia rettgeri, HM56; P. rettgeri HM-56; AAC(6')-producing; Mueller-Hinton agar; read-out: MIC. Type of test: cell-based. Here is the method:
as §1

Another test concerns S. aureus A22153. The test is described as above. Type of test: cell-based. To be noted: Staphylococcus aureus; S. aureus A22153; AAC(6')-producing; Mueller-Hinton agar; read-out: MIC. Here is the method:
as §1

The test system of another test is S. aureus A22421. The description is as above. Type of test: cell-based. To be noted: Staphylococcus aureus; S. aureus A22421; AAC(6')-producing; Mueller-Hinton agar; read-out: MIC. The protocol:
as §1

For another test, the system named is S. epidermidis A22152. The test is described as above. Type of test: cell-based. To be noted: Staphylococcus epidermidis, A22152. Here is the method:
as §1

Another test relates to S. epidermidis A22211. Described as above. Type of test: cell-based. To be noted: Staphylococcus epidermidis; S. epidermidis A22211; AAC(6')-producing; Mueller-Hinton agar; read-out: MIC. Here is the method: as §1
A further test relates to S. marcescens A21226. The test is described as above. The note with it: Serratia marcescens; S. marcescens A21226; AAC(6')-producing; Mueller-Hinton agar; read-out: MIC. Type of test: cell-based. The protocol: as §1
Another test relates to S. marcescens A21235. Described as above. Type of test: cell-based. To be noted: Serratia marcescens; S. marcescens A21235; AAC(6')-producing; Mueller-Hinton agar; read-out: MIC. The protocol: as §1
In a further test the test system is S. marcescens A22288. The test is described as above. To be noted: Serratia marcescens; S. marcescens A22288; AAC(6')-producing; Mueller-Hinton agar; read-out: MIC. Type of test: cell-based. Here is the method: as §1
In the next test the test system is S. marcescens A22382. The description is as above. The class given is cell-based. To be noted: Serratia marcescens; S. marcescens A22382; AAC(6')-producing; Mueller-Hinton agar; read-out: MIC. Here is the method:
as §1

The next test relates to B. brevis IFO 12334. As to the kind of experiment: MIC in Mueller-Hinton agar, ANT(4')-producing strain. The note with it: Brevibacillus brevis, IFO12334; B. brevis IFO 12334; ANT(4')-producing; Mueller-Hinton agar; read-out: MIC. Type of test: cell-based. Here is the method: as §1
The next test has as its system S. aureus A22054. Described as above. Type of test: cell-based. The note with it: Staphylococcus aureus; S. aureus A22054; ANT(4')-producing; Mueller-Hinton agar; read-out: MIC. Here is the method:
as §1

For the next test, the system named is S. epidermidis A22033. The description is as above. Type of test: cell-based. The note with it: Staphylococcus epidermidis; S. epidermidis A22033; ANT(4')-producing; Mueller-Hinton agar; read-out: MIC. The protocol: as §1
The test system of test [2] is microorganisms containing aminoglycoside-inactivating enzymes. The note with it: background statement; cited from earlier work.
Test [3] concerns aminoglycoside-6'-acetyltransferase [AAC(6')]. The note with it: background statement; cited from earlier work.
The test system of test [4] is aminoglycoside-4'-adenylyltransferase [ANT(4')]. To be noted: background statement; cited from earlier work.

`NCC1CC(O)C(O)C(OC2C(N)CC(N)C(OC3OC(CO)C(O)C(N)C3O)C2O)O1` (stereo not drawn) [4'-deoxykanamycin]: the “resistance to kanamycin phosphotransferase Type-II” value in test [1] is “resistance to kanamycin phosphotransferase Type-II”.
Regarding `NCC[C@H](O)C(=O)N[C@@H]1C[C@H](N)[C@@H](O[C@H]2O[C@H](CN)[C@@H](O)[C@H](O)[C@H]2O)[C@H](O)[C@H]1O[C@H]1O[C@H](CO)[C@@H](O)[C@H](N)[C@H]1O` [Amikacin, 1-N-[L-(-)-γ-amino-α-hydroxybutyryl]kanamycin A], the minimum inhibitory concentration (MIC) came to 0.8 µg/mL (≈ 1.37 µM) in the test with B. brevis ATCC8185; 3.1 µg/mL (≈ 5.29 µM) in the test with E. cloacae A20464; 0.8 µg/mL (≈ 1.37 µM) in the test on E. coli A9632; 1.6 µg/mL (≈ 2.73 µM) with K. pneumoniae A15130; 1.6 µg/mL (≈ 2.73 µM) in the test on P. Morganii A20031; 1.6 µg/mL (≈ 2.73 µM) in the test with P. mirabilis A9900. Further, the minimal inhibitory concentration (MIC) was determined as 1.6 µg/mL (≈ 2.73 µM) with P. stuartii A20615; 0.8 µg/mL (≈ 1.37 µM) in the test on P. vulgaris A9526; 0.8 µg/mL (≈ 1.37 µM) with S. aureus Smith; 1.6 µg/mL (≈ 2.73 µM) with S. marcescens A20019; 3.1 µg/mL (≈ 5.29 µM) with E. cloacae A20364; 1.6 µg/mL (≈ 2.73 µM) in the test with E. coli A20363. For the same compound, the MIC with E. cloacae A21006 was 1.6 µg/mL (≈ 2.73 µM); with E. coli A20107, 1.6 µg/mL (≈ 2.73 µM); in the test on E. coli A20732, 0.8 µg/mL (≈ 1.37 µM); in the test on E. coli A20895, 0.8 µg/mL (≈ 1.37 µM); in the test on E. cloacae HM-43 it was more than 100 µg/mL; in the test on E. coli A2128, 3.1 µg/mL (≈ 5.29 µM). Further, the MIC in the test on P. aeruginosa GN315 was 50 µg/mL (≈ 85.4 µM); in the test on P. aeruginosa GN4925, 12.5 µg/mL (≈ 21.3 µM); in the test on P. rettgeri HM-56, more than 100 µg/mL; in the test on S. aureus A22153, 12.5 µg/mL (≈ 21.3 µM); in the test on S. aureus A22421, 12.5 µg/mL (≈ 21.3 µM); against S. epidermidis A22152, 3.1 µg/mL (≈ 5.29 µM). Also, the MIC is 12.5 µg/mL (≈ 21.3 µM) in the test on S. epidermidis A22211; 6.3 µg/mL (≈ 10.8 µM) in the test on S. marcescens A21226; 25 µg/mL (≈ 42.7 µM) in the test on S. marcescens A21235; 6.3 µg/mL (≈ 10.8 µM) in the test with S. marcescens A22288; 12.5 µg/mL (≈ 21.3 µM) in the test on S. marcescens A22382; 6.3 µg/mL (≈ 10.8 µM) with B. brevis IFO 12334. Moreover, the MIC in the test on S. aureus A22054 and in the test with S. epidermidis A22033 was 6.3 µg/mL (≈ 10.8 µM) throughout. In addition, the “effectiveness against enzyme-containing microorganisms” value in test [2] is recorded as “effective against a wide variety of microorganisms containing aminoglycoside-inactivating enzymes”. Besides, in test [3], the “susceptibility to AAC(6')” value is “still susceptible”. For the same compound, in [4], the “susceptibility to ANT(4')” value is “still susceptible”.
